Experimental data reported in US20120294886A1, “PEPTIDE CONJUGATES FOR SUPPRESSING AN IMMUNE RESPONSE, METHODS OF MAKING AND USES THEREFOR” (The University of Queensland, priority 2011, published 2012).

What was measured:
SJL/J mice [1] = assay: Induction of EAE by immunisation with peptide in complete Freund's adjuvant (Example 2); assay type: in vivo, mouse; settings: for Day of Onset / Incidence: EAE; for Day of Onset / Incidence / Score: mice immunised with the peptide in CFA; for Incidence: followed for 6 weeks; for Score: clinical score of EAE; for Duration: duration of the first episode of disease
Method: In examples 2 and 4-8, PLP encephalitogenic epitopes were injected into SJL/J mice to induce EAE, so the mice could be used as an animal model for MS. Such a model has been used in numerous studies, including where preventative or treatment methods for MS are being investigated. The study described in Hofstetter et al., 2007, for example, describes the induction of EAE in SJL mice at pages 1373-1374.
Mice were immunised with the above non-palmitoylated, S-palmitoylated or N-palmitoylated peptides in complete Freund's adjuvant to induce EAE.
(1) Mice were followed for 6 weeks to determine the induction of EAE.

SJL/J mouse [2] = assay: EAE induction by W144, co-immunisation with Q144 or S-palm Q144 (Example 4); assay type: in vivo
Method: (§1) One mg per mL of W144 peptide, either alone or together with Q144 peptide or S-palm Q144 peptide at different molar ratios, was emulsified in an equal volume of complete Freund's adjuvant containing an additional 4 mg/ml Mycobacterium tuberculosis H37Ra. 200 μl of the emulsion (i.e. 100 μg W144) was then injected subcutaneously in a single site on the back of each SJL/J mouse. Each mouse also received 300 ng pertussis toxin intravenously on the same day as the peptide emulsion and then 3 days later.
(§2) The mice were inspected and weighed daily and scored for disease using a 5 point severity scale: 0=no disease; 1=decreased tail tone; 2=no tail tone; 3=hind limb weakness; 4=hind limb paralysis; 5=moribund.

lymph node cells (LNC) = assay: CD4/CD8 ratio of activated LNC by flow cytometry (Example 2); assay type: cell-based, mouse; settings: activated LNC from immunised mice, 4 per group
Method: Lymph nodes from a different group of mice immunised in the same manner were removed 10 days after injection of the peptides and single cell suspensions of lymph node cells (LNC) were prepared.
(3) Other LNC were incubated with antibodies against CD4 or CD8, and the ratio of CD4 to CD8 was determined using flow cytometric techniques. LNC were centrifuged through a Ficoll gradient and washed with PBS containing 1% FCS and 0.01% sodium azide (wash buffer). Aliquots of 1 million cells were incubated with antibodies specific for CD4 (clone RM4-5; rat IgG2a) or CD8a (clone 53-6.7; rat IgG2a) together with an antibody specific for the TCR β-chain (H57-597; hamster IgG) for 30 min at 4° C. in the dark, followed by FITC-conjugate anti-rat κ-chain or PE-conjugated anti-hamster IgG for 30 min at 4° C. in the dark. Isotype-matched primary antibodies were used as controls. All antibodies were purchased from PharMingen (San Diego, Calif.) and were used at 1 μg/ml dilution in wash buffer. After washing, cells were resuspended in wash buffer and analysed using a FACSCalibur flow cytometer (Becton Dickinson, Franklin Lakes, N.J.).

SJL/J mouse [3] = assay: EAE induction by F188, co-immunisation with A188 or S-palm A188 (Example 5); assay type: in vivo
Method: as §1, with “F188” for “W144”, “A188” for “Q144”, “F188)” for “W144)”
as §2

SJL/J mice [4] = assay: Therapeutic treatment of established S-palm-PLP178-191-induced EAE (Example 7); assay type: in vivo, mouse; settings: 100 μL of 1 mg/mL in PBS s.c. at score 2.0 or 2.5, followed for 7 days, versus PBS, FIG. 6
Method: SJL/J mice were injected subcutaneously with 100 μg S-palm-F188 (S-palm-PLP178-191), i.e. 100 μl of a 1 mg/ml solution emulsified in an equal volume (i.e. 100 μl Complete Freund's Adjuvant containing an extra 4 mg/mL Mycobacterium tuberculosis H37Ra. Each mouse also received 300 ng pertussis toxin intravenously on the same day as the peptide emulsion and then 3 days later.
The mice were then inspected and scored for disease using a 5 point severity scale: 0=no disease; 1=decreased tail tone; 2=no tail tone; 3=hind limb weakness; 4=hind limb paralysis; 5=moribund.
When the mice reached a score between 2.0 or 2.5, each mouse was injected subcutaneously with 100 μL PBS (n=6), 100 μL of 1 mg/mL A188 in PBS (n=6), or 100 μL of 1 mg/mL S-palm-A188 in PBS (n=7).
Mice were then followed for 7 days, and scored each day.

[5] = test system: endoplasmic reticulum (ER); assay: Colocalisation of peptide with endoplasmic reticulum in macrophages, confocal microscopy (Example 3); assay type: cell-based, mouse; settings: 30 or 60 minutes incubation, FIG. 4
Method: (§3) For confocal microscopy, macrophages were isolated from normal 8-12-wk old female SJL/J mice peritoneal cell suspensions by adhesion to glass coverslips. The macrophages were then incubated with 100 μM peptide for between 1 min and 24 h at 37° C., the peptide being one of:
(§4) After incubation, cells were fixed with 4% formaldehyde in PBS for 15 min at room temperature and permeabilised with 0.05% digitonin in PBS for 5 min at room temperature or 0.2% Triton X-100 in PBS for 20 min at room temperature.
(§5) The cells were then incubated with murine antibodies against endosomes, lysosomes, endoplasmic reticulum, or MHC class I or II molecules for 1-3 hours at 37° C. After three washes in PBS, cells were incubated with streptavidin-Alexa 488 (1/400 dilution in PBS) or streptavidin-Cy3 (1/450 dilution in PBS) (both from Molecular Probes) and Texas Red-labeled rabbit anti-mouse IgG or IgM for 30 min in the dark at room temperature. After washing with PBS, coverslips were mounted in Aquapolymount medium. Immunofluorescence staining was monitored with a laser scanning microscope (LSM 510; Carl Zeiss Laboratories) equipped with a Plan-Apochromat 63× oil DIC immersion lens (numerical aperture 1.4). […] Quantification of colocalisation was performed on cells from 10 to 12 fields (at least 100 cells) with the colocalisation module of the Zeiss LSM Image Browser software.

lysosomes = assay: Colocalisation of peptide with lysosomes in macrophages, confocal microscopy (Example 3); assay type: cell-based, mouse; settings: FIG. 3
Method: as §3, §4, §5

endosomes = assay: Colocalisation of peptide with endosomes in macrophages, confocal microscopy (Example 3); assay type: cell-based, mouse; settings: FIG. 3
Method: as §3, §4, §5

MHC class I molecules = assay: Colocalisation of peptide with MHC class I in macrophages, confocal microscopy (Example 3); assay type: cell-based, mouse; settings: FIG. 5
Method: as §3, §4, §5

MHC class II molecules = assay: Colocalisation of peptide with MHC class II in macrophages, confocal microscopy (Example 3); assay type: cell-based, mouse; settings: FIG. 5
Method: as §3, §4, §5

[6] = EAE, 100 μg W144 alone in CFA s.c.

Substance	Day of Onset (SJL/J mice [1])	Incidence (SJL/J mice [1])	Score (SJL/J mice [1])	Duration (SJL/J mice [1])	CD4/CD8 Ratio (mean ± SEM) (lymph node cells (LNC))	Colocalisation with endoplasmic reticulum (ER) [5]	Colocalisation with lysosomes (lysosomes)	Colocalisation with endosomes (endosomes)	Colocalisation with MHC class I (MHC class I molecules)	further results
H2N-HCLGKWLGHPDKF-CO2H (H-HCLGKWLGHPDKF-OH) [PLP139-151]	11.0 ± 1.4 days	4/4	3.0 ± 0.7	5.8 ± 1.8	2.18 ± 0.19					Incidence (SJL/J mouse [2]; [6]): 4/4; Mean day of onset (SJL/J mouse [2]; [6]): 11.5 days; Mean severity (SJL/J mouse [2]; mean maximum severity of mice that developed EAE, 5 point scale, W144 alone): 4.3
H2N-KTTICGKGLSATVT-CO2H (H-KTTICGKGLSATVT-OH) [PLP104-117]		0/4	0		2.31 ± 0.07					
H2N-NTWTTCQSIAAPSK-CO2H (H-NTWTTCQSIAAPSK-OH) [A188]										Protective effect on EAE (in words) (SJL/J mouse [3]; injected at a dose 5 times greater than the encephalitogenic peptide F188): protective; Mean EAE score after treatment (SJL/J mice [4]): intermediate between the control group and the S-palm-A188-treated group
H2N-NTWTTCQSIAFPSK-CO2H (H-NTWTTCQSIAFPSK-OH) [PLP178-191]	13.0 ± 1.5 days	5/5	2.7 ± 0.9	5.8 ± 0.4						Mean severity (SJL/J mouse [3]; 5 point scale, F188 alone): 2.8 ± 0.3; Incidence (SJL/J mouse [3]; EAE, 100 μg F188 alone in CFA s.c.): 8/8; Mean day of onset (SJL/J mouse [3]; EAE, F188 alone): 11.3 ± 0.5 days
PLP139-151 Cys140-Palm Lys150-Biot (S-palm) (HCLGKWLGHPDKF) [S-palm peptide]						but not S-palm peptide colocalised strongly	colocalised strongly with lysosomes	colocalised rapidly and strongly with endosomes	only a small percentage	Colocalisation with MHC class II (MHC class II molecules): colocalised strongly with MHC class II
PLP139-151 His139-Palm Lys150-Biot (N-palm) (HCLGKWLGHPDKF) [N-palm peptide]						colocalised strongly with endoplasmic reticulum (ER)	did not colocalise strongly with lysosomes in most cells	did not colocalise strongly with endosomes in most cells	colocalised strongly with MHC class I	
